Experimental data taken from patent US9133206B2, “Benzodiazepine and pyridodiazepine derivatives” (AbbVie Inc., priority 2010, dated 2015).

What was measured:
[1] = system: mouse model of multiple sclerosis; conditions: in vivo administration; cited from earlier work
[2] = system: SK-N-SH human neuroblastoma cells; assay: Serum Deprivation/JC-1 Mitochondrial Membrane Potential (MMP) Assay; format: cell-based; conditions: Homo sapiens; for activation at 3 µM: single dose 3 μM, JC-1 ratio normalized to peak value for 10 μM dimebolin (n=2-4), read-out: JC-1 max % (@ 3 μM); for activation at 3 µM / Emax: serum deprivation; for EC50 / Emax: SK-N-SH; for EC50: 18 h, serum deprivation ~18 hours, JC-1 ratio normalized to peak value for 10 μM dimebolin, single curve fit to mean data of n=2-3; for Emax: percent maximal intensity in JC-1 ratio normalized to peak value for 10 μM dimebolin, read-out: JC-1 max %
Method in brief: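 SK-N-SH cells serum-deprived ~18 h with compound, then stained with JC-1 for 40 min at 37 °C; red (560/595 nm) to green (485/535 nm) ratio reports membrane potential. Response normalized to peak from 10 μM dimebolin; EC50 from fit to mean of n=2–3, or single-dose 3 μM; DMSO ≤1%.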

[3] = system: patients with mild-to-moderate Alzheimer's disease; conditions: 20 mg three times a day (60 mg/day); cited from earlier work

Compound | activation at 3 µM [2] [%] | EC50 [2] [nM] | Emax [2] [%] | also measured
O=C1C=C(c2ccccc2)C(=O)N1c1cccc(Cl)c1 [1-(3-chlorophenyl)-3-phenyl-pyrrole-2,5-dione] | – | – | – | development of the disease [1]: significantly prevented the development of the disease
O=C(NCCc1cccnc1)N1Cc2ccccc2N2CCN(Cc3ccccc3)CC2C1 (centres unmarked) [Example 150, 3-benzyl-N-[2-(pyridin-3-yl)ethyl]-1,2,3,4,4a,5-hexahydropyrazino[1,2-a][1,4]benzodiazepine-6(7H)-carboxamide] | 212 | – | – | –
O=C(NCCc1ccccn1)N1Cc2ccccc2N2CCN(Cc3ccccc3)CC2C1 (centres unmarked) [Example 151, 3-benzyl-N-[2-(pyridin-2-yl)ethyl]-1,2,3,4,4a,5-hexahydropyrazino[1,2-a][1,4]benzodiazepine-6(7H)-carboxamide] | – | 1800 | 163 | –
O=C(NCCc1ccncc1)N1Cc2ccccc2N2CCN(Cc3ccccc3)CC2C1 (centres unmarked) [Example 152, 3-benzyl-N-[2-(pyridin-4-yl)ethyl]-1,2,3,4,4a,5-hexahydropyrazino[1,2-a][1,4]benzodiazepine-6(7H)-carboxamide] | – | 3080 | 239 | –
N#CCCN(C(=O)N1Cc2ccccc2N2CCN(Cc3ccccc3)CC2C1)C1CC1 (centres unmarked) [Example 153, 3-benzyl-N-(2-cyanoethyl)-N-cyclopropyl-1,2,3,4,4a,5-hexahydropyrazino[1,2-a][1,4]benzodiazepine-6(7H)-carboxamide] | 68 | – | – | –
NCCc1cn(C(=O)N2Cc3ccccc3N3CCN(Cc4ccccc4)CC3C2)cn1 (centres unmarked) [Example 154, [4-(2-aminoethyl)-1H-imidazol-1-yl](3-benzyl-1,2,3,4,4a,5-hexahydropyrazino[1,2-a][1,4]benzodiazepin-6(7H)-yl)methanone] | 49 | – | – | –
O=C(NCc1ccncc1)N1Cc2ccccc2N2CCN(Cc3ccccc3)CC2C1 (centres unmarked) [Example 155, 3-benzyl-N-(pyridin-4-ylmethyl)-1,2,3,4,4a,5-hexahydropyrazino[1,2-a][1,4]benzodiazepine-6(7H)-carboxamide] | 75 | – | – | –
Cc1ccc(CNC(=O)N2Cc3ccccc3N3CCN(Cc4ccccc4)CC3C2)o1 (centres unmarked) [Example 156, 3-benzyl-N-[(5-methyl-2-furyl)methyl]-1,2,3,4,4a,5-hexahydropyrazino[1,2-a][1,4]benzodiazepine-6(7H)-carboxamide] | – | 2400 | 152 | –
CCN(CCOC)C(=O)N1Cc2ccccc2N2CCN(Cc3ccccc3)CC2C1 (centres unmarked) [Example 157, 3-benzyl-N-ethyl-N-(2-methoxyethyl)-1,2,3,4,4a,5-hexahydropyrazino[1,2-a][1,4]benzodiazepine-6(7H)-carboxamide] | 264 | – | – | –
CCN(CC)C(=O)N1Cc2ccccc2N2CCN(Cc3ccccc3)CC2C1 (centres unmarked) [Example 158, 3-benzyl-N,N-diethyl-1,2,3,4,4a,5-hexahydropyrazino[1,2-a][1,4]benzodiazepine-6(7H)-carboxamide] | – | 1020 | 181 | –
O=C(Nc1nccs1)N1Cc2ccccc2N2CCN(Cc3ccccc3)CC2C1 (centres unmarked) [Example 159, 3-benzyl-N-(1,3-thiazol-2-yl)-1,2,3,4,4a,5-hexahydropyrazino[1,2-a][1,4]benzodiazepine-6(7H)-carboxamide] | 64 | – | – | –
O=C(NCC1CC1)N1Cc2ccccc2N2CCN(Cc3ccccc3)CC2C1 (centres unmarked) [Example 160, 3-benzyl-N-(cyclopropylmethyl)-1,2,3,4,4a,5-hexahydropyrazino[1,2-a][1,4]benzodiazepine-6(7H)-carboxamide] | – | 645 | 245 | –
CC(C)N1CCN(C(=O)N2Cc3ccccc3N3CCN(Cc4ccccc4)CC3C2)CC1 (centres unmarked) [Example 161, (3-benzyl-1,2,3,4,4a,5-hexahydropyrazino[1,2-a][1,4]benzodiazepin-6(7H)-yl)(4-isopropylpiperazin-1-yl)methanone] | – | 3180 | 218 | –
CC(C)CNC(=O)N1Cc2ccccc2N2CCN(Cc3ccccc3)CC2C1 (centres unmarked) [Example 162, 3-benzyl-N-isobutyl-1,2,3,4,4a,5-hexahydropyrazino[1,2-a][1,4]benzodiazepine-6(7H)-carboxamide] | 194 | – | – | –
O=C(NCc1cccnc1)N1Cc2ccccc2N2CCN(Cc3ccccc3)CC2C1 (centres unmarked) [Example 163, 3-benzyl-N-(pyridin-3-ylmethyl)-1,2,3,4,4a,5-hexahydropyrazino[1,2-a][1,4]benzodiazepine-6(7H)-carboxamide] | 183 | – | – | –
CN(C)CCCNC(=O)N1Cc2ccccc2N2CCN(Cc3ccccc3)CC2C1 (centres unmarked) [Example 164, 3-benzyl-N-[3-(dimethylamino)propyl]-1,2,3,4,4a,5-hexahydropyrazino[1,2-a][1,4]benzodiazepine-6(7H)-carboxamide] | 93 | – | – | –
CCCCN(CC#N)C(=O)N1Cc2ccccc2N2CCN(Cc3ccccc3)CC2C1 (centres unmarked) [Example 165, 3-benzyl-N-butyl-N-(cyanomethyl)-1,2,3,4,4a,5-hexahydropyrazino[1,2-a][1,4]benzodiazepine-6(7H)-carboxamide] | 251 | – | – | –
COCCCNC(=O)N1Cc2ccccc2N2CCN(Cc3ccccc3)CC2C1 (centres unmarked) [Example 166, 3-benzyl-N-(3-methoxypropyl)-1,2,3,4,4a,5-hexahydropyrazino[1,2-a][1,4]benzodiazepine-6(7H)-carboxamide] | – | 765 | 181 | –
COCCNC(=O)N1Cc2ccccc2N2CCN(Cc3ccccc3)CC2C1 (centres unmarked) [Example 167, 3-benzyl-N-(2-methoxyethyl)-1,2,3,4,4a,5-hexahydropyrazino[1,2-a][1,4]benzodiazepine-6(7H)-carboxamide] | 63 | – | – | –
O=C(NCc1ccccn1)N1Cc2ccccc2N2CCN(Cc3ccccc3)CC2C1 (centres unmarked) [Example 168, 3-benzyl-N-(pyridin-2-ylmethyl)-1,2,3,4,4a,5-hexahydropyrazino[1,2-a][1,4]benzodiazepine-6(7H)-carboxamide] | 259 | – | – | –
O=C(NC1CCC1)N1Cc2ccccc2N2CCN(Cc3ccccc3)CC2C1 (centres unmarked) [Example 169, 3-benzyl-N-cyclobutyl-1,2,3,4,4a,5-hexahydropyrazino[1,2-a][1,4]benzodiazepine-6(7H)-carboxamide] | – | 816 | 173 | –
CCCN(C)C(=O)N1Cc2ccccc2N2CCN(Cc3ccccc3)CC2C1 (centres unmarked) [Example 170, 3-benzyl-N-methyl-N-propyl-1,2,3,4,4a,5-hexahydropyrazino[1,2-a][1,4]benzodiazepine-6(7H)-carboxamide] | 273 | – | – | –
O=C(N1CCCCC1)N1Cc2ccccc2N2CCN(Cc3ccccc3)CC2C1 (centres unmarked) [Example 171, (3-benzyl-1,2,3,4,4a,5-hexahydropyrazino[1,2-a][1,4]benzodiazepin-6(7H)-yl)(piperidin-1-yl)methanone] | – | 2450 | 251 | –
O=C1C2CNCCN2c2ccccc2CN1CC1CC1 (centres unmarked) [Example 172, 6-(cyclopropylmethyl)-2,3,4,4a,6,7-hexahydropyrazino[1,2-a][1,4]benzodiazepin-5(1H)-one] | 0 | – | – | –
CN1CCN2c3ccccc3CN(C3CCN(C(=O)c4ccccc4)CC3)CC2C1 (centres unmarked) [Example 173, [4-(3-methyl-1,2,3,4,4a,5-hexahydropyrazino[1,2-a][1,4]benzodiazepin-6(7H)-yl)piperidin-1-yl](phenyl)methanone] | 68 | – | – | –
CN1CCN2c3ccccc3CN(C(=O)c3ccccc3Cl)CC2C1 (centres unmarked) [Example 174, (2-chlorophenyl)(3-methyl-1,2,3,4,4a,5-hexahydropyrazino[1,2-a][1,4]benzodiazepin-6(7H)-yl)methanone] | 41 | – | – | –
CN1CCN2c3ccccc3CN(C(=O)c3cccc(Cl)c3)CC2C1 (centres unmarked) [Example 175, (3-chlorophenyl)(3-methyl-1,2,3,4,4a,5-hexahydropyrazino[1,2-a][1,4]benzodiazepin-6(7H)-yl)methanone] | 40 | – | – | –
CN1CCN2c3ccccc3CN(C(=O)c3ccc(Cl)cc3)CC2C1 (centres unmarked) [Example 176, (4-chlorophenyl)(3-methyl-1,2,3,4,4a,5-hexahydropyrazino[1,2-a][1,4]benzodiazepin-6(7H)-yl)methanone] | 40 | – | – | –
Cc1ccc2c(c1)c1c(n2CCc2ccc(C)nc2)CCN(C)C1 [dimebolin] | – | – | – | clinical course of disease (ADAS-Cog, improvement over baseline) [3]: significant improvement in the clinical course of disease
